Data reported in patent US20150366962A1 (priority 2014, published 2015).

What was measured:
[1] = test system: rPR/8 HA; test: rPR/8 HA single immunization: serum antibody ELISA; assay type: in vivo, BALB/c mice; details: for seroconversion to rPR/8 HA (total IgG, IgG1, IgG2a): 5 μg rPR/8 HA i.m. day 0, sera days 7, 14, 21; for total serum IgG reactive to antigen, long term / IgG2a/IgG1 ratio (Th1-Th2 immune balance): 5 μg rPR/8 HA; for total serum IgG reactive to antigen, long term: bled every 3 weeks up to 18 weeks; for IgG2a/IgG1 ratio (Th1-Th2 immune balance): single immunization
[2] = test system: OT-II splenocytes; test: Intracellular IFNγ in CD4 T cells of OT-II splenocytes; assay type: cell-based, mice; details: for intracellular IFNγ expressing CD4 T cells: alone, OVA323-339, 3 days
Procedure: To evaluate whether 1Z105 can enhance the proinflammatory cytokine induction by 1V270, BMDC (C57BL/6) were incubated with 1V270 (0.025, or 0.1 μM) in the presence or absence of 1Z105 (5 μM). […] Antigen presenting function was evaluated using splenocytes prepared from OVA MHC class II-restricted alpha beta T cell receptor (TCR) transgenic mice OT-II. Splenocytes were cultured with OVA peptide (OVA323-339) for 3 days with 1Z105, or 1V270 alone or in combination. The frequency of intracellular (IC) IFNγ expressing CD4 T cells was determined by flow cytometric assay. Treatment with 1V270 alone increased intracellular IFNγ (3.7 and 6.8% by 25 and 100 nM, respectively).

[3] = test system: human umbilical vein cells (HUVEC); test: Chemokine induction in HUVEC; assay type: cell-based
Procedure: (§1) TLR7 expression in humans is limited to plasmacytoid DC and B cells, and different from the expression in mice. Conversely, TLR4 is abundantly expressed in different cell types in humans and mice. Thus, experiments were performed to determine whether 1Z105 and 1V270 could stimulate human umbilical vein cells (HUVEC) and myeloid dendritic cells.

[4] = test system: A/Puerto Rico/8/1934(H1N1); parameters: species or system BALB/c mice; details: mouse, in vivo
[5] = test system: myeloid dendritic cells; test: Chemokine induction in human myeloid dendritic cells; assay type: cell-based; details: myeloid DC
Procedure: as §1

[6] = test system: PBMC; test: IL-8 release by human PBMC; assay type: cell-based
Text: To confirm the activities of 1Z105/1V270 combined adjuvant in human cells, PBMC were stimulated with these agonists.

[7] = test system: rCal/09 HA; test: Cross-reactive serum IgG to Cal/09 HA after rPR/8 HA immunization; assay type: in vivo, BALB/c mice; details: for heteroreactive serum IgG titers versus unadjuvanted protein alone: 5 μg rPR/8 HA, rCal/09 HA substrate, 3 weeks
[8] = test system: rHA derived from A/California/04/2009 (pH1N1); test: rHA (Cal/09) immunization: serum IgG ELISA; assay type: in vivo, BALB/c mice; details: 5 μg Cal/09 rHA, 3 weeks after immunization
[9] = Histological examination for reactogenicity (H&E, injected muscle); assay type: in vivo, BALB/c mice; details: for inflammation at the site of injection and systemically in comparison to AddaVax: 24 h after i.m. injection; for cellular infiltration in injected muscle (H&E): i.m. without antigen, 24 h after injection
Text: Scale bars, 100 μm. […] The error bars indicate SEM.
Twenty-four hours after injection, muscle tissues at the injection sites and sera were harvested. The muscles were fixed in 10% buffered formalin and embedded in paraffin. Sections 5 μm thick were stained with hematoxylin and eosin (H&E) and examined under a microscope.

[10] = test system: rHA derived from A/Vietnam/1203/2004 (VN/04); parameters: species or system BALB/c mice; details: mouse, in vivo
[11] = test system: A/Brisbane/59/2007 (H1N1), A/Uruguay/716/2007 (H3N2), B/Brisbane/60/2008; test: Fluzone immunization: serum IgG to the vaccine's viral components; assay type: in vivo, BALB/c mice; details: 50 ng/HA 2009-2010 Fluzone, 3 weeks
[12] = test system: OVA; test: OVA immunization: anti-OVA IgG1 and IgG2c by ELISA; assay type: in vivo, C57BL/6 mice; details: i.m. OVA 20 μg plus adjuvant, sera day 35
[13] = test system: recombinant PR8 HA; test: T cell response to head and stalk segments of PR8 HA (IFNγ ELISpot or ELISA); assay type: in vivo, Balb/c mice; details: two immunizations two weeks apart, 6 weeks after the first
[14] = test system: Purified CD4+ or CD8+ T cells; test: Purified CD4+ or CD8+ T cell proliferation; assay type: cell-based; details: in the presence of CD3 ligation
Procedure: Capability for induction of antigen specific CD8 T cells is one of the ideal features for adjuvants for cancer or herpes simplex virus infection. Thus, 1V270 and 1Z105 were examined to determine whether the agonists can directly induce T cell proliferation. Purified CD4+ or CD8+ T cells were incubated with 1Z105, 1V270 alone or in combination.

SMILES	seroconversion to rPR/8 HA (total IgG, IgG1, IgG2a) [1]	total serum IgG reactive to antigen, long term [1]	IgG2a/IgG1 ratio (Th1-Th2 immune balance) [1]	induction of chemokines MCP-1 and IL-8 [3]	mortality [4]	survival after the lethal challenge [4]	weight loss [4]	induction of chemokines MCP-1 and IL-8 [5]	IL-8 release by PBMC [6]	heteroreactive serum IgG titers versus unadjuvanted protein alone [7]	IgG seroresponse [8]	inflammation at the site of injection and systemically in comparison to AddaVax [9]	cellular infiltration in injected muscle (H&E) [9]	IgG seroresponse [10]	seroresponse to the three viral components of Fluzone (ELISA) [11]	serum anti-OVA IgG1 titers versus OVA alone [12]	T cell response against the head segment (pool 1-2) of HA [13]	purified CD4+ or CD8+ T cell proliferation [14]	also measured
Cn1c2ccccc2c2nc(SCC(=O)NC3CCCCC3)n(-c3ccccc3)c(=O)c21 [Compound 1Z105]	induced rapid seroconversion	induced a robust and sustained IgG response	produced predominately IgG1 in a Th2-type response	induced the chemokines MCP-1, and IL-8	provided protective efficacy	100%	significantly reduced weight loss	induced the chemokines MCP-1, and IL-8	minimal levels of IL-8	significantly higher	enhanced	minimal inflammation	minimal cellular infiltration	enhanced	enhanced the seroresponse to all three viral components	significantly higher	highly induced T cell response	enhanced purified CD4+ or CD8+T cell proliferation	difference in serum IgG endpoint titers among rHA doses (antigen sparing) ([1]; 5, 1 or 0.2 μg rPR/8 HA, 3 weeks after immunization): no significant difference; frequency of IFNγ-producing cells ([2]; 1Z105 in combination with 1V270): additively increased; mortality compared to no-adjuvant control receiving 5 μg of rHA [4]: significantly minimized; subtypes of cross-reactive antibodies (IgG2a/IgG1) ([7]; antibodies cross-reactive to Cal/09 HA): produced predominately IgG1
CCCCCCCCC=CCCCCCCCC(=O)OCC(COP(=O)(O)OCCNC(=O)c1ccc(Cn2c(=O)[nH]c3c(N)nc(OCCOC)nc32)cc1)OC(=O)CCCCCCCC=CCCCCCCCC (stereo not drawn) [Compound 1V270]	induced rapid seroconversion	induced a robust and sustained IgG response	induced both IgG1 and IgG2a in a more balanced Th1-Th2-type response	minimal effects	provided protective efficacy	100%	significantly reduced weight loss	minimal effects	minimal levels of IL-8	significantly higher	enhanced	minimal inflammation	minimal cellular infiltration	enhanced	enhanced the seroresponse to all three viral components	did not induce IgG1 comparably to 1Z105	highly induced T cell response	enhanced purified CD4+ or CD8+T cell proliferation	intracellular IFNγ expressing CD4 T cells ([2]; 25 nM): 3.7%; intracellular IFNγ expressing CD4 T cells ([2]; 100 nM): 6.8%; weight loss compared to AddaVax [4]: restricted weight loss compared to AddaVax; serum anti-OVA IgG2c titers versus OVA alone [12]: significantly higher IgG2c titers; stalk-specific (pool 3-4) T cell responses [13]: also induced stalk-specific (pool 3-4) T cell responses
